# Assay results reported in US6355799B1, “Substituted benzene compounds, process for their preparation, and herbicidal and defoliant compositions containing them” (ISK Americas Incorporated, priority 1997, dated 2002).
# What was measured:
# Format in all cases: in vivo
# [1] = system: redroot pigweed (Amaranthus retroflexus, AMARE); experiment: Pre-emerge test, greenhouse herbicide activity screening; conditions: pre-emerge, phytotoxicity rating 0-100 at 14 days after application
# Summary of the method: (§1)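 Compounds in acetone were track-sprayed at 15-1000 g ai/ha (187 l/ha) on sandy loam pots: pre-emerge one day after seeding, post-emerge at 2-3 leaf stage with 0.25% v/v non-ionic surfactant. Phytotoxicity was rated 14 days later on a 0 (no damage) to 100 (complete death) scale.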
# [2] = system: barnyardgrass (Echinochloa crus-galli, ECHCG); experiment: as above; conditions: pre-emerge, phytotoxicity rating 0-100 at 14 days after application
# Summary of the method: (§2)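 Compounds in acetone were track-sprayed at 187 l/ha, 15–1000 g ai/ha, onto sandy loam pots. Pre-emerge seeds were sown one day before spraying, with surface watering afterwards. Post-emerge plants were at the 2–3 leaf stage and sprayed with 0.25% v/v non-ionic surfactant. Injury was rated 0–100 at 14 days.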
# [3] = system: green foxtail (Setaria viridis, SETVI); experiment: as above; conditions: pre-emerge, phytotoxicity rating 0-100 at 14 days after application
# Summary of the method: as §2
# [4] = system: ivyleaf morningglory (Ipomoea hederacea, IPOHE); experiment: as above; conditions: pre-emerge, phytotoxicity rating 0-100 at 14 days after application
# Summary of the method: as §2
# [5] = system: johnsongrass (Sorghum halepense, SORHA); experiment: as above; conditions: pre-emerge, phytotoxicity rating 0-100 at 14 days after application
# Summary of the method: as §2
# [6] = system: lambsquarters (Chenopodium album, CHEAL); experiment: as above; conditions: pre-emerge, phytotoxicity rating 0-100 at 14 days after application
# Summary of the method: as §2
# [7] = system: large crabgrass (Digitaria sanguinalis, DIGSA); experiment: as above; conditions: pre-emerge, phytotoxicity rating 0-100 at 14 days after application
# Summary of the method: as §2
# [8] = system: sicklepod (Cassia obtusifolia, CASOB); experiment: as above; conditions: pre-emerge, phytotoxicity rating 0-100 at 14 days after application
# Summary of the method: as §2
# [9] = system: velvetleaf (Abutilon theophrasti, ABUTH); experiment: as above; conditions: pre-emerge, phytotoxicity rating 0-100 at 14 days after application
# Summary of the method: as §2
# [10] = system: field corn (Zea mays L., var. Dekalb 535, CORN); experiment: Pre-emerge test, crop safety; conditions: crop damage, pre-emerge, phytotoxicity rating 0-100 at 14 days after application
# Summary of the method: as §1
# [11] = system: upland rice (Oryza sp., var. Tebonnet, RICE); experiment: Pre-emerge test, crop safety; conditions: crop damage, pre-emerge, phytotoxicity rating 0-100 at 14 days after application
# Summary of the method: as §1
# [12] = system: barnyardgrass (Echinochloa crus-galli, ECHCG); experiment: Post-emerge test, greenhouse herbicide activity screening; conditions: post-emerge, phytotoxicity rating 0-100 at 14 days after application
# Summary of the method: (§3)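 Plants grown in 10 cm pots of sandy loam mix received acetone-dissolved compounds through a moving flat-fan nozzle. Doses ranged from 15 to 1000 g ai/ha. Pre-emerge pots were seeded one day earlier, post-emerge pots 8–21 days earlier. Fourteen days on, each pot was graded 0–100 for damage.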
# [13] = system: green foxtail (Setaria viridis, SETVI); experiment: as above; conditions: post-emerge, phytotoxicity rating 0-100 at 14 days after application
# Summary of the method: as §3
# [14] = system: ivyleaf morningglory (Ipomoea hederacea, IPOHE); experiment: as above; conditions: post-emerge, phytotoxicity rating 0-100 at 14 days after application
# Summary of the method: as §3
# [15] = system: johnsongrass (Sorghum halepense, SORHA); experiment: as above; conditions: post-emerge, phytotoxicity rating 0-100 at 14 days after application
# Summary of the method: as §3
# [16] = system: lambsquarters (Chenopodium album, CHEAL); experiment: as above; conditions: post-emerge, phytotoxicity rating 0-100 at 14 days after application
# Summary of the method: as §3
# [17] = system: large crabgrass (Digitaria sanguinalis, DIGSA); experiment: as above; conditions: post-emerge, phytotoxicity rating 0-100 at 14 days after application
# Summary of the method: as §3
# [18] = system: redroot pigweed (Amaranthus retroflexus, AMARE); experiment: as above; conditions: post-emerge, phytotoxicity rating 0-100 at 14 days after application
# Summary of the method: as §3
# [19] = system: sicklepod (Cassia obtusifolia, CASOB); experiment: as above; conditions: post-emerge, phytotoxicity rating 0-100 at 14 days after application
# Summary of the method: as §3
# [20] = system: velvetleaf (Abutilon theophrasti, ABUTH); experiment: as above; conditions: post-emerge, phytotoxicity rating 0-100 at 14 days after application
# Summary of the method: as §3
# [21] = system: field corn (Zea mays L., var. Dekalb 535, CORN); experiment: Post-emerge test, crop safety; conditions: post-emerge, crop damage rating 0-100 at 14 days after application
# Summary of the method: as §2
# [22] = system: upland rice (Oryza sp., var. Tebonnet, RICE); experiment: Post-emerge test, crop safety; conditions: post-emerge, crop damage rating 0-100 at 14 days after application
# Summary of the method: as §2
smiles,measurement,setting,value
Cc1c(Cl)cc(F)c(-n2c(=O)cc(C(F)(F)F)n(C)c2=O)c1NC(=O)OCc1ccc([N+](=O)[O-])cc1 [4-64],Pre-emerge Herbicidal Activity AMARE,[1]; rate 63 g ai/ha,100
same,Pre-emerge Herbicidal Activity AMARE,[1]; rate 250 g ai/ha,100
same,Pre-emerge Herbicidal Activity ECHCG,[2]; rate 63 g ai/ha,30
same,Pre-emerge Herbicidal Activity ECHCG,[2]; rate 250 g ai/ha,70
same,Pre-emerge Herbicidal Activity SETVI,[3]; rate 63 g ai/ha,100
same,Pre-emerge Herbicidal Activity SETVI,[3]; rate 250 g ai/ha,100
same,Pre-emerge Herbicidal Activity IPOHE,[4]; rate 63 g ai/ha,40
same,Pre-emerge Herbicidal Activity IPOHE,[4]; rate 250 g ai/ha,70
same,Pre-emerge Herbicidal Activity SORHA,[5]; rate 63 g ai/ha,40
same,Pre-emerge Herbicidal Activity SORHA,[5]; rate 250 g ai/ha,80
same,Pre-emerge Herbicidal Activity CHEAL,[6]; rate 63 g ai/ha,100
same,Pre-emerge Herbicidal Activity CHEAL,[6]; rate 250 g ai/ha,100
same,Pre-emerge Herbicidal Activity DIGSA,[7]; rate 63 g ai/ha,100
same,Pre-emerge Herbicidal Activity DIGSA,[7]; rate 250 g ai/ha,100
same,Pre-emerge Herbicidal Activity CASOB,[8]; rate 63 g ai/ha,20
same,Pre-emerge Herbicidal Activity CASOB,[8]; rate 250 g ai/ha,90
same,Pre-emerge Herbicidal Activity ABUTH,[9]; rate 63 g ai/ha,100
same,Pre-emerge Herbicidal Activity ABUTH,[9]; rate 250 g ai/ha,100
same,Pre-emerge Herbicidal Activity CORN,[10]; rate 63 g ai/ha,0
same,Pre-emerge Herbicidal Activity CORN,[10]; rate 250 g ai/ha,45
same,Pre-emerge Herbicidal Activity RICE,[11]; rate 63 g ai/ha,30
same,Pre-emerge Herbicidal Activity RICE,[11]; rate 250 g ai/ha,80
same,Post-emerge Herbicidal Activity ECHCG,[12]; 63 g ai/ha,20
same,Post-emerge Herbicidal Activity ECHCG,[12]; 250 g ai/ha,30
same,Post-emerge Herbicidal Activity SETVI,[13]; 63 g ai/ha,50
same,Post-emerge Herbicidal Activity SETVI,[13]; 250 g ai/ha,80
same,Post-emerge Herbicidal Activity IPOHE,[14]; 63 g ai/ha,100
same,Post-emerge Herbicidal Activity IPOHE,[14]; 250 g ai/ha,100
same,Post-emerge Herbicidal Activity SORHA,[15]; 63 g ai/ha,10
same,Post-emerge Herbicidal Activity SORHA,[15]; 250 g ai/ha,30
same,Post-emerge Herbicidal Activity CHEAL,[16]; 63 g ai/ha,100
same,Post-emerge Herbicidal Activity CHEAL,[16]; 250 g ai/ha,100
same,Post-emerge Herbicidal Activity DIGSA,[17]; 63 g ai/ha,10
same,Post-emerge Herbicidal Activity DIGSA,[17]; 250 g ai/ha,30
same,Post-emerge Herbicidal Activity AMARE,[18]; 63 g ai/ha,100
same,Post-emerge Herbicidal Activity AMARE,[18]; 250 g ai/ha,100
same,Post-emerge Herbicidal Activity CASOB,[19]; 63 g ai/ha,60
same,Post-emerge Herbicidal Activity CASOB,[19]; 250 g ai/ha,100
same,Post-emerge Herbicidal Activity ABUTH,[20]; 63 g ai/ha,100
same,Post-emerge Herbicidal Activity ABUTH,[20]; 250 g ai/ha,100
same,Post-emerge Herbicidal Activity CORN,[21]; 63 g ai/ha,30
same,Post-emerge Herbicidal Activity CORN,[21]; 250 g ai/ha,40
same,Post-emerge Herbicidal Activity RICE,[22]; 63 g ai/ha,15
same,Post-emerge Herbicidal Activity RICE,[22]; 250 g ai/ha,50
COc1c(Cl)cc(F)c(N2C(=O)C3=C(CCCC3)C2=O)c1N [8-7],Pre-emerge Herbicidal Activity AMARE,[1]; rate 63 g ai/ha,99
same,Pre-emerge Herbicidal Activity AMARE,[1]; rate 250 g ai/ha,100
same,Pre-emerge Herbicidal Activity ECHCG,[2]; rate 63 g ai/ha,0
same,Pre-emerge Herbicidal Activity ECHCG,[2]; rate 250 g ai/ha,70
same,Pre-emerge Herbicidal Activity SETVI,[3]; rate 63 g ai/ha,95
same,Pre-emerge Herbicidal Activity SETVI,[3]; rate 250 g ai/ha,99
same,Pre-emerge Herbicidal Activity IPOHE,[4]; rate 63 g ai/ha,0
same,Pre-emerge Herbicidal Activity IPOHE,[4]; rate 250 g ai/ha,0
same,Pre-emerge Herbicidal Activity SORHA,[5]; rate 63 g ai/ha,10
same,Pre-emerge Herbicidal Activity SORHA,[5]; rate 250 g ai/ha,70
same,Pre-emerge Herbicidal Activity CHEAL,[6]; rate 63 g ai/ha,95
same,Pre-emerge Herbicidal Activity CHEAL,[6]; rate 250 g ai/ha,100
same,Pre-emerge Herbicidal Activity DIGSA,[7]; rate 63 g ai/ha,50
same,Pre-emerge Herbicidal Activity DIGSA,[7]; rate 250 g ai/ha,80
same,Pre-emerge Herbicidal Activity CASOB,[8]; rate 63 g ai/ha,0
same,Pre-emerge Herbicidal Activity CASOB,[8]; rate 250 g ai/ha,0
same,Pre-emerge Herbicidal Activity ABUTH,[9]; rate 63 g ai/ha,100
same,Pre-emerge Herbicidal Activity ABUTH,[9]; rate 250 g ai/ha,100
same,Pre-emerge Herbicidal Activity CORN,[10]; rate 63 g ai/ha,0
same,Pre-emerge Herbicidal Activity CORN,[10]; rate 250 g ai/ha,10
same,Pre-emerge Herbicidal Activity RICE,[11]; rate 63 g ai/ha,0
same,Pre-emerge Herbicidal Activity RICE,[11]; rate 250 g ai/ha,0
same,Post-emerge Herbicidal Activity ECHCG,[12]; 63 g ai/ha,0
same,Post-emerge Herbicidal Activity ECHCG,[12]; 250 g ai/ha,20
same,Post-emerge Herbicidal Activity SETVI,[13]; 63 g ai/ha,0
same,Post-emerge Herbicidal Activity SETVI,[13]; 250 g ai/ha,90
same,Post-emerge Herbicidal Activity IPOHE,[14]; 63 g ai/ha,10
same,Post-emerge Herbicidal Activity IPOHE,[14]; 250 g ai/ha,70
same,Post-emerge Herbicidal Activity SORHA,[15]; 63 g ai/ha,0
same,Post-emerge Herbicidal Activity SORHA,[15]; 250 g ai/ha,0
same,Post-emerge Herbicidal Activity CHEAL,[16]; 63 g ai/ha,95
same,Post-emerge Herbicidal Activity CHEAL,[16]; 250 g ai/ha,99
same,Post-emerge Herbicidal Activity DIGSA,[17]; 63 g ai/ha,0
same,Post-emerge Herbicidal Activity DIGSA,[17]; 250 g ai/ha,10
same,Post-emerge Herbicidal Activity AMARE,[18]; 63 g ai/ha,95
same,Post-emerge Herbicidal Activity AMARE,[18]; 250 g ai/ha,100
same,Post-emerge Herbicidal Activity CASOB,[19]; 63 g ai/ha,0
same,Post-emerge Herbicidal Activity CASOB,[19]; 250 g ai/ha,90
same,Post-emerge Herbicidal Activity ABUTH,[20]; 63 g ai/ha,95
same,Post-emerge Herbicidal Activity ABUTH,[20]; 250 g ai/ha,100
same,Post-emerge Herbicidal Activity CORN,[21]; 63 g ai/ha,10
same,Post-emerge Herbicidal Activity CORN,[21]; 250 g ai/ha,10
same,Post-emerge Herbicidal Activity RICE,[22]; 63 g ai/ha,0
same,Post-emerge Herbicidal Activity RICE,[22]; 250 g ai/ha,90
